Laboratory results published in a melting point compilation (Tetko et al.; mined from patent text by program, amines drawn as free bases though some values may be those of a salt).
Residues, ends and D or L forms follow the SMILES beside them. *: point of attachment. Cbz = O=C(OCc1ccccc1)*; Boc = CC(C)(C)OC(=O)*

| Structure (SMILES) | melting point [°C] |
| --- | --- |
| O=C(O)c1ccccc1SC1CCOC1=O (stereo not given) | 180 to 182 |
| COc1ccc(Br)c2c1-c1ccc(NS(C)(=O)=O)cc1C(c1ccccc1)O2 (stereo not given) | 122 to 123 |
| Clc1ccc2c3c(cccc13)-c1ccccc1-2 | 95 to 98 |
| COCCNC(=O)c1cc2c(ccc3cnn(C[C@H](C)N)c32)o1 | 75 to 76 |
| COc1ccc(S(=O)(=O)N(Cc2cccnc2)c2c(C(=O)O)cc(C)cc2-c2cccs2)cc1 | 67 |
| N#Cc1c(Cl)csc1NC=O | 241 |
| CC(=O)Nc1ccc(-c2ccc(CCCC(=O)O)cc2)cc1Br | 155 to 156 |
| COC(=O)C(=NO)c1nc2cc(Cl)ccc2oc1=O | 176 to 177 |
| Cc1cccc2[nH]c3cc(O)ccc3c12 | 191 |
| COC(=O)Cc1ccc(OCC(C)NC(C)C(O)c2ccccc2)cc1 (stereo not given) | 122 |
| CCOC(=O)c1c(CN(CC)CC)nc2sc3c(c2c1-c1ccc(Cl)cc1)CCN(C(=O)c1ccccc1)C3 | 177 to 178 |
| Cc1ccc(-c2cc(OCC(=O)N3CCOCC3)c3ccccc3n2)cc1 | 146 |
| CCCCc1nc2ccccc2n1Cc1ccc(C(=O)O)cc1 | 229 to 231 |
| O=C(CCc1ccc([N+](=O)[O-])cc1)c1c(O)c2cccnc2n(-c2ccccc2)c1=O | 215 to 217 |
| CC(=O)OCc1c(C(=O)C(=O)O)c2cc(-c3ccc(OC(F)(F)F)cc3)ccc2n1Cc1ccccc1 | 85 to 86 |
| CC(C)(C)OC(=O)NCC1CNC1 | 112 to 114 |
| CS(=O)c1ccc(COS(C)(=O)=O)cc1 (stereo not given) | 63 to 65 |
| NC1=Nc2ccc(I)cc2C(c2ccccn2)=NC1 | 228 to 229 |
| O=C(O)[C@@H](Cc1ccccc1)Oc1c(Br)cc(-c2c3ccccc3c(C(F)(F)F)c3sc4ccccc4c23)cc1Br | 109 to 143 |
| Cc1cc(C)c2nnn(C(=O)N3CCOCC3)c2c1 | 115 |
| CCOC(=O)COc1ccc2cc(-c3cc4ccccc4o3)ccc2c1Cl | 140 to 142 |
| N=C(N)c1ccc(O)c([N+](=O)[O-])c1 | > 240 |
| CCCn1nc2c(N)nc3ccccc3c2c1CCCCC(=N)NO | 222 to 224 |
| CCOC(=O)C(C)N1C(=O)C(C)Oc2c(N3CCOCC3)nc(C)nc21 (stereo not given) | 80 to 82 |
| COc1ccccc1OCCOS(C)(=O)=O | 73 to 76 |

| Structure (SMILES) | melting point [°C] |
| --- | --- |
| CC(C)(C)C1=CC(=Cc2ccc(C#N)cc2)C=C(C(C)(C)C)C1=O | 147 to 148 |
| CCNc1nc(N)c(SC)c(Cl)n1 | 124 |
| NS(=O)(=O)NCCc1ccccc1 | 61.8 to 62 |
| CCN1C(=O)CN=C(c2ccccc2F)c2cc(C(C)N)ccc21 (stereo not given) | 53 to 55 |
| S=C(NCc1ccc2c(c1)OCO2)N1CCc2c([nH]c3ccccc23)C1c1ccc2c(c1)OCO2 (stereo not given) | 97 to 100 |
| CSC[C@H](Nc1cc(F)ccc1[N+](=O)[O-])C(=O)O | 147 |
| CC(C)[Si](Oc1cc(C=O)c2c(c1)C1(C)CCN(C)C1N2C)(C(C)C)C(C)C (stereo not given) | 42 to 45 |
| O=C(O)c1ccc(OC(F)F)c2oc3ccc([N+](=O)[O-])cc3c12 | > 270 |
| Cc1nc2ccc([N+](=O)[O-])cn2c(=O)c1CCCl | 170 |
| CC(=O)Oc1cccc(C(=O)N[C@@H](Cc2ccccc2)[C@H](O)C(=O)O)c1C | 189 to 191 |
| COc1c(C2CCN(CCCCNC(=O)c3ccc(-c4ccc(Cl)cc4)c(OCC(N)=O)c3)CC2)ccc2c1CCCC2 | 198 |
| CCCNC(=O)C(C)=Cc1ccc2c(c1)c(Cc1ccc(C(=O)NS(=O)(=O)c3ccccc3C)cc1OC)cn2C | 189 to 191 |
| CCCCc1c(Cl)nc(N)nc1-c1ccsc1 | 154 to 155 |
| N#CCCC=NNc1ccc(CS(N)(=O)=O)cc1 | 175 to 176 |
| [N-]=[N+]=C1C(=O)Nc2ccc(F)cc21 | 209 to 210 |
| CC1(C)Oc2ccc(Cl)cc2C(CS(=O)(=O)NCC(=O)NCCc2ccccc2)C1O (stereo not given) | 168 to 170 |
| Fc1ccc(Cn2c(OC3CCN(Cc4ccccc4)CC3)nc3cncnc32)cc1 | 117 |
| O=C(NCc1noc(-c2ccc(CN3CCCCCC3)s2)n1)c1ccccc1 | 79 to 81 |
| CN1C2CCC1CC(O)(c1ccc(F)cc1)C2 (stereo not given) | 169 |
| Oc1ccc2c(c1)OCC(c1ccc(F)cc1)C2c1ccc(OCCN2CCCC2)cc1 (stereo not given) | 164 to 167 |
| CCOC(=O)c1oc2ccc(Cl)cc2c1C | 80 to 82 |
| Cc1c(NC(=O)CC(C)(C)C)c2c(c3c1C(c1ccc(C(C)C)cc1)CO3)CCCC2 (stereo not given) | 183 to 184 |
| COc1cc2ccc(S(=O)(=O)Cl)cc2cc1OC | 128 to 130 |
| O=C1NCCc2c1c1cccc3c1n2CCC3 | 254 to 256 |
| O=C(NCCCCCn1cnc2cnc3ccccc3c21)c1ccccc1 | 172 |

More lines, now with the values ahead:

| melting point [°C] | Structure (SMILES) |
| --- | --- |
| 158 to 160 | C=CCOc1cc(-n2c(=O)cc(C(F)(F)F)n(C)c2=O)ccc1C#N |
| 154 to 156 | O=C(O)Cc1ccc(CC2(CNS(=O)(=O)c3ccccc3)CCCC2)cc1 |
| 89 | O=P(CN=Cc1ccccc1Cl)(c1ccccc1)c1ccccc1 |
| 132 to 134 | CC(C)c1ccc(S(=O)(=O)n2c(COC(C)(C)C(=O)O)cc3cc(C(F)(F)F)ccc32)cc1 |
| 135 to 136 | CCc1cc(C=C(C#N)C#N)ccc1N=C1SCC2(CCCC2)N1C1CCCC1 |
| 131 to 132 | CC(C(N)=O)c1ccc(-n2cc(Cl)cn2)c(Cl)c1 (stereo not given) |
| 231 to 232 | COCc1c(C(=O)O)ncc2c1c1c(Oc3ccc([N+](=O)[O-])cc3)cccc1n2CC(=O)N(C)CCc1ccccc1 |
| 139 to 140 | CC(C)N1CCc2ccc(C(=O)CCC(=O)N3CCC(c4ccc(Cl)cc4)CC3)cc2CC1 |
| 120 to 125 | Cc1cn2cccc(OCc3c(Cl)ccc(S(=O)(=O)N4CCC[C@H]4C(=O)NCCCNC(=O)c4ccc(C=NN)cc4)c3Cl)c2n1 |
| 62 to 65 | CCOc1ccccc1OS(N)(=O)=O |
| 130 to 131 | CCCC(=O)c1ccc(-c2ncccc2S(=O)(=O)Nc2ncc(C)nc2OC)cc1 |
| 156 to 157 | Cc1ccc(-c2c(CNC(=O)OC(C)(C)C)[nH]c(=O)c3ccc(C#N)cc23)cc1 |
| 131 | O=C(COc1cc(-c2cccc(Cl)c2)nc2ccccc12)N1CCOCC1 |
| > 300 | Oc1nc2cc(Cl)c3nc[nH]c3c2nc1O |
| 116 to 117 | COc1ccc(CCCc2nnc(-c3ccc4occc4c3)o2)cc1 |
| 75 to 77 | Cc1nnc(C(=O)CCCCCCOc2ccccc2)o1 |
| 273 to 275 | Cc1nn(C)c(C)c1S(=O)(=O)N1CCC2(CC1)CSC1=C(O2)c2ccccc2C(=O)C1=O |
| 95 to 96 | CCOC(=O)Cc1c(-c2ccccc2)c2cc(COC(C)=O)c(COC(C)=O)cc2oc1=O |
| 159 to 160 | CCOc1cccc(C2C(C(=O)OC)=C(C)NC(C)=C2C(=O)OC)c1OCC(=O)NCCO[N+](=O)[O-] |
| 112 to 113 | COc1ccc(CCCOS(C)(=O)=O)cc1OCc1coc(/C=C/c2ccccc2)n1 |
| 193 to 195 | CN(Cc1cccc2c1CN(C1CCC(=O)NC1=O)C2=O)C(=O)Nc1cccc(Cl)c1 (stereo not given) |
| 110 to 112 | O=[N+]([O-])c1ccc(F)c(-c2ccncc2)c1F |
| 63.5 to 65.5 | CC[C@H]1CNC[C@H]1NC(=O)OC(C)(C)C |

| melting point [°C] | Structure (SMILES) |
| --- | --- |
| 173 | COC(=O)[C@@H]1C[C@H](C(=O)O)Nc2cc(C)cc(C)c21 (relative stereo) |
| 103 to 105 | CCCCc1nn(-c2cc(NC(=O)CC)ccc2Cl)c(=O)n1Cc1ccc(-c2ccccc2S(=O)(=O)NC(C)(C)C)cc1F |
| 259 to 261 | O=C(Cc1ccccc1)Nc1ncc(-c2ccc(O)cc2)nc1Cc1ccccc1 |
| 108 | COc1c(C)cc(C(=O)CCC(=O)O)cc1C |
| 262 to 264 | CC(=O)Nc1cc(Cl)c(Cl)cc1NC(=O)Nc1cc(C(F)(F)F)ccc1Cl |
| 183 to 187 | OCc1cn(-c2ccc3ncccc3c2)cn1 |
| 183 to 184 | N#Cc1n[nH]cc1-c1ccc(Cl)cc1C(=O)c1ccccc1Cl |
| 134 to 148 | COc1cc(C(=O)N2CCC(CCN3CCCN(c4nc5ccccc5n4CCOCC#N)CC3)(c3ccccc3)C2)cc(OC)c1OC (stereo not given) |
| 76 | CC(C)(C)OC(=O)N1C(=O)C(C2=COc3ccccc3O2)=C(c2cn(C(=O)OC(C)(C)C)c3ccc(OCc4ccccc4)cc23)C1=O |
| 135 to 137 | CCOC(=O)C(C)c1ccc2oc(Nc3ccc(Cl)cc3)nc2c1 (stereo not given) |
| 135 to 136 | CCOC(=O)C(CC(C)C)NC(=O)C(Cc1ccccc1)NC(=O)C(CCCCNC(=O)OCc1ccccc1)NC(=O)OC(C)(C)C (stereo not drawn) (Boc-Lys(Cbz)-Phe-Leu-OEt; configuration not given here) |
| 174 | NS(=O)(=O)Nc1cccc(-c2cccc(-c3nc(-c4ccc(C(F)(F)F)cc4)cc(C(F)(F)F)n3)c2)c1 |
| 92 to 94 | O=C1C(CCO)Oc2ccc(C(F)(F)F)cc2N1Cc1cccc(Cl)c1 (stereo not given) |
| 206 to 208 | Cc1cc(Oc2ccc3nc(COc4ccc(CC5SC(=O)NC5=O)cc4)n(C)c3c2)cc(C)c1NC(=O)Nc1ccc(C(F)(F)F)cc1 (stereo not given) |
| 214 to 216 | O=C(O)C(Cl)C1c2c(Cl)c(Cl)c(Cl)c(Cl)c2C(Cl)(Cl)C1(Cl)Cl (stereo not given) |
| 39 to 43 | CC[C@@H](C=O)NC(=O)OC(C)(C)C |
| 156 to 158 | COc1cccc(NC(=O)/C=C(\C)c2cc3cccc(OCCCC(=O)O)c3o2)c1 |
| 82 to 84 | CC(C)(C)OC(=O)CN1C(=O)[C@@H](NC(=O)OCc2ccccc2)[C@H]1CCc1ccco1 |
| 182 to 184 | O=C(O)CNC(=O)c1nnc2ccc(NCCCN3CCC(OC(c4ccccc4)c4ccccc4)CC3)nn12 |
| 174 to 176 | COc1ccc(C(=O)Nc2ccccc2)cc1NCc1ccc(C(C)C)cc1 |
| 208 | N#Cc1c(-c2ccc(Cl)cc2)[nH]c(C(F)(F)F)c1C(F)(F)F |
| 169 to 171 | Nc1nc2ccccc2c2c1nc(CF)n2CC1(O)CCOC1 (stereo not given) |
